Measurements reported in PubChem BioAssay AID179 (DTP/NCI, 2004).
Values joined by “and” are separate entries in the source; they are usually repeats but may differ in a detail not shown here. Identical values can stand only once. Active and inactive are the calls of the source.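 The calls were made as follows: active = compounds giving half or more protection of infected cells from virus-caused growth loss, again on retest; inactive = the rest.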 Where a SMILES comes first, the peptide text is derived from it. The star is where a group is joined. Boc = CC(C)(C)OC(=O)*; OBn = c1ccc(CO*)cc1

System: CEM cells HIV-1 protection, formazan growth assay
Assay: NCI AIDS Antiviral Assay
Settings: for IC50: measured here: growth of uninfected CEM cells
Method in brief: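 Human CEM cells, uninfected and HIV-1-infected, exposed to five drug concentrations; growth measured by soluble formazan assay and scored as percent protection from infection, with protecting compounds retested.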

Compound | EC50 [µM] | IC50 | outcome
O=C(Nc1ccccc1)OCCN=C1c2ccccc2C(Br)C(Br)c2ccccc21 (configuration not stated) | > 200 | 0.794 µM | –
Oc1cc2ccccc2cc1OC(F)(F)c1nc2ccccc2o1 | > 200 | 12.3 µM | –
COC(=O)N1CC2CC=CC(C2)c2ccccc21 (configuration not stated) | > 204 | > 204 µM | –
Cc1ccccc1N1CC2CC3C=CC2(C1)O3 (configuration not stated) | > 200 | > 200 µM | –
CCOC(C)=Nc1cc(OC)cc2c1NC(=O)CCS2 | > 200 | > 200 µM | –
COC(=O)C(Cc1ccccc1)N=Cc1c(O)c(O)c(C(C)C)c2cc(C)c(-c3c(C)cc4c(C(C)C)c(O)c(O)c(C=NC(Cc5ccccc5)C(=O)OC)c4c3O)c(O)c12 (configuration not stated) | > 11.7 | > 11.7 µM | –
O=C1NC2ON=C(c3ccccc3)C2C2ON=C(c3ccccc3)N12 (configuration not stated) | > 200 | 37.2 µM | –
CCO[C@H]1OC(=O)[C@@H]2C(c3ccc([N+](=O)[O-])cc3)=NO[C@H]12 | > 46.8 | > 46.8 µM | –
O=S1(=O)[C@H](c2ccccc2)c2c(-c3ccccc3)sc(-c3ccccc3)c2[C@@H]1c1ccccc1 | – | – | inactive
COc1ccc(/C(C#N)=C/c2ccccc2)cc1 | > 200 | 10.7 µM | –
O=C(O)CCSSCCCCCS(=O)O | > 200 | 24 µM | –
O=C1OC(=O)C2C3C=CC(C12)C1C2C=CC2C31 (configuration not stated) | – | – | inactive
COc1cccc2c1OC(=O)C(S(=O)(=O)c1ccccc1)C2 (configuration not stated) | > 562 | > 562 µM | –
Cc1c2oc(=O)cc(-c3ccccc3)c2cc2c(=O)ccoc12 | > 22.4 | > 22.4 µM | –
N#Cc1c(-c2ccccc2)cc(-c2ccc(Cl)cc2)[nH]c1=S | > 200 | 33.9 µM | –
CC12C(=O)N(CCN)C(=O)C1C1c3ccccc3C2c2ccccc21 (configuration not stated) | – | – | inactive
Cc1cc(O)c(C=NC(=S)c2ccccc2)c(=O)o1 | > 200 | > 200 µM | –
CN1CSCSC1 | – | – | inactive
CCCCCCCCCCCCCC(=O)CBr | – | – | inactive
O=C(N/C(=C\c1cccc([N+](=O)[O-])c1)c1nc2ccc([N+](=O)[O-])cc2[nH]1)c1ccccc1 | – | – | inactive
CCN(CC)C(=S)SS(=O)(=O)c1ccc([N+](=O)[O-])cc1 | > 200 | 19.1 µM | –

Compound | EC50 [µM] | IC50 | outcome
N#C/C(=C\c1c(O)ccc2ccccc12)c1ccc([N+](=O)[O-])cc1 | > 100 | > 100 µM | –
COC1=C(C(=O)O)P(C)(=O)CC1 (configuration not stated) | > 214 | > 214 µM | –
Cc1ccc(Nc2nc(C)c(C(=O)C/C(=N\NC(N)=S)C(=O)Nc3ccc(Cl)cc3C)s2)cc1 | > 200 | > 200 µM | –
O=[N+]([O-])c1ccc2c(c1)C(N1CCN(CCO)CC1)Cc1ccc(F)cc1S2 (configuration not stated) | > 200 | 22.4 µM | –
CC(=O)Nc1oc(C)nc1C#N | > 200 | > 200 µM | –
CCOc1ccc(NC(=O)C2=C(C)NC(C)=C(C(=O)Nc3ccc(OCC)cc3)C2c2ccc(O)c(OC)c2)cc1 | > 17 | > 17 µM | –
CC1(C)CC2C(/C1=N/O)C1(C)CCCC2(C)C1O (configuration not stated) | > 200 | > 200 µM | –
C[C@H](CCc1nc(C#N)c(N)o1)[C@H]1CC[C@H]2[C@@H]3CCC4C[C@@H](O)CC[C@]4(C)[C@H]3C[C@@H](O)[C@]12C (some centres not stated) | > 20 | 1.95 µM | –
CNc1nc(N)[nH]c(=O)c1N=O | – | – | inactive
O=C(O)c1cc(O)ccc1O | > 200 | > 200 µM | –
O=S(=O)(SC1=NCCN1)c1ccc2ccccc2c1 | 22.9 | 29.5 µM | –
Clc1cccc(NC(c2ccccc2)=[N+]2CCCCC2)c1 | > 200 | 30.9 µM | –
NC(=O)N/N=C(\CCC(=O)N(Cc1ccccc1)Cc1ccccc1)CC(=O)c1ccc(F)cc1 | > 200 | > 200 µM | –
CC(C)CC(NC(=O)OC(C)(C)C)C(=O)NC(CC(=O)OCc1ccccc1)C(N)=O (stereo not drawn) (Boc-Leu-Asp(OBn)-NH2; configuration not given here) | > 200 | > 200 µM | –
O=C1c2ccccc2S(=O)(=O)c2ccccc21 | 129 | 501 µM | –
C[N+](C)(Cc1ccco1)c1ccccc1 | > 3.16 | > 3.16 µM | –
CC(=O)NC(CS)C(=O)NC(CO)C(=O)NC(CO)C(=O)NC(Cc1c[nH]c2ccccc12)C(=O)N1CCCC1C(=O)NC(CO)C(=O)NC(Cc1c[nH]c2ccccc12)C(=O)NC(Cc1c[nH]cn1)C(=O)NC(CO)C(=O)NC(Cc1c[nH]c2ccccc12)C(=O)NCC(=O)NCC(=O)NC(C)C(=O)NC(CCC(N)=O)C(=O)NC(CCCCN)C(=O)NC(C)C(=O)NC(CCCNC(=N)N)C(=O)NC(CCCCN)C(N)=O (configuration not stated) (Ac-CSSWPSWHSWGGAQKARK-NH2; configuration not given here) | > 20 | 17.4 µM | –
C(/Cc1ccc2c(c1)OCO2)=N\NC1=NCCCCN1 | > 200 | 105 µM | –
CS(=O)(=O)OCC1OC(n2ccc(NC(=O)c3ccccc3)nc2=O)CC1OS(C)(=O)=O (configuration not stated) | > 200 | > 200 µM | –
O=S1ON=C(C2CCC(C3=NOS(=O)O3)C2)O1 (configuration not stated) | > 200 | > 200 µM | –
CCOC(=O)C(C(=O)OCC)=C1SC(=Nc2ccccc2)C(=Nc2ccccc2)N1c1ccccc1 | > 200 | 70.8 µM | –

Compound | EC50 [µM] | IC50 | outcome
N#C/C(=C\c1cccc(C#N)c1)C(=O)c1ccccc1 | > 115 | 15.8 µM | –
CCCCCCCN=C(N)CSSCC(N)=NCCCCCCC | > 331 | 10.2 µM | –
OC(C#CC(O)(c1ccccc1)c1ccccc1)(c1ccccc1)c1ccccc1 | > 200 | 11 µM | –
CC(C)c1nc2c(Cl)c3ncccc3cc2[nH]c1=O | > 100 | 39.8 µM | –
O=C(c1ccccc1)n1cc(-c2ccccc2)c2c(=O)[nH]cnc21 | > 200 | > 100 µM | –
O=C1c2cccc3cc([N+](=O)[O-])cc(c23)C(=O)N1Nc1ccc([N+](=O)[O-])cc1[N+](=O)[O-] | > 200 | 9.77 µM | –
S=C(Nc1ccc2c(c1)oc1ccccc12)c1cccs1 | > 200 | > 200 µM | –
N#Cc1c(N)c(C(=O)O)nn(-c2cccc(C(F)(F)F)c2)c1=O | – | – | inactive
CO/C(=N\N=C\c1cccc(Cl)c1)c1ccncc1 | > 132 | 83.2 µM | –
Cc1c2c(cc3c(=O)ccn(CCN(C)C)c13)c(=O)ccn2CCN(C)C | > 135 | 1 µM | –
Cc1c2cc(O)c(=O)cc-2oc2cc(O)c(O)cc12 | > 200 | 12.6 µM and 39.8 µM | –
CN(C)CCNC(=O)c1cccc(C(=O)Nc2ccccc2)c1[N+](=O)[O-] | > 200 | > 200 µM | –
CC(C)C1CC(CO)(CNc2nc(N)nc(Cl)c2/C=N\O)C1 (configuration not stated) | > 20 | 0.0331 µM | –
CC(=O)Oc1ccc(/C=C/S(=O)(=O)CS(=O)(=O)/C=C/c2ccc(OC(C)=O)c(OC(C)=O)c2)cc1OC(C)=O | > 20 | 11 µM | –
CC12CO[C@@](C)(CC(S(=O)(=O)c3ccccc3)C1)O2 (some centres not stated) | > 178 | > 178 µM | –
CCOC(=O)c1nc2ccc(C(F)(F)F)cc2nc1NCc1cc(OC)c(OC)c(OC)c1 | > 126 | > 126 µM | –
COc1ccc(C2C3=C(COC3=O)Oc3cc4c(cc32)OCO4)c(OC)c1 (configuration not stated) | > 200 | 12.3 µM | –
O=C1CCC2(CCC(=O)NC2=O)C(=O)N1 | > 1200 | > 1200 µM | –
O=C(O)/C=C/C(=O)NNC(=O)/C=C/C(=O)O | > 1100 | 692 µM | –
CC(=O)OC1COC(Nc2nc(N)n(C)c(=O)c2N=O)C(OC(C)=O)C1OC(C)=O (configuration not stated) | > 200 | > 200 µM | –
C[C@H](CCC(=O)O)[C@H]1CC[C@H]2[C@@H]3[C@H](O)[C@H](O)[C@@H]4C[C@H](O)CC[C@]4(C)[C@H]3CC[C@]12C | > 200 | 72.4 µM | –

Compound | EC50 [µM] | IC50 | outcome
CCOc1cc(C2=NNc3n[nH]c(=S)n3N2)ccc1O | 151 | 331 µM | –
O=C1CCCC[C@H]1C(O)CC1CC(=O)N(c2ccccc2)C(=O)C1 (some centres not stated) | > 200 | > 200 µM | –
CC(=O)CC(OC(C)=O)C1=CCC2C(CC1C)OC(=O)C2C (configuration not stated) | > 224 | 39.8 µM | –
CSC1=Nc2ccccc2N=C(c2ccc(Cl)cc2)C1 | > 12.6 | > 12.6 µM | –
Cc1c(CN2CCN(C)CC2)c(O)c2c(=O)c3c(O)c(CN4CCN(C)CC4)c(O)c4c5c(O)c(CN6CCN(C)CC6)c(O)c6c(=O)c7c(O)c(CN8CCN(C)CC8)c(C)c8c1c2c(c34)c(c78)c65 | > 10.2 | > 10.2 µM | –
Cc1c(N=Nc2ccccc2)c(C)n(C2OC(CO)C(O)C(O)C2O)c(=S)c1C#N (configuration not stated) | > 200 | 22.9 µM | –
C=C1CC2(CCS(=O)(=O)c3ccccc32)OC1=O (configuration not stated) | > 355 | 1.51 µM | –
CN(C)C(=O)c1ccc(N=Nc2c(O)c3ccccc3[nH]c2=O)cc1 | > 200 | 36.3 µM | –
CO/C(=N\N=C\c1ccccc1F)c1ccncc1 | > 141 | > 141 µM | –
O=C1c2ccccc2C(=O)c2sc(Nc3cccc(Cl)c3)nc21 | > 5.89 | 3.39 µM | –
CCCCCCCC/C=C\CCCCCCCC(=O)N(C)N(C)C(=O)CCCCCCC/C=C/CCCCCCCC | > 200 | > 200 µM | –
N#Cc1nc(C#N)n(S(=O)(=O)c2ccccc2)c1NS(=O)(=O)c1ccccc1 | > 200 | > 200 µM | –
Cc1cc(S(=O)(=O)Nc2nc3cscc3c(=O)n2N)c(S)cc1Cl | 33.9 | 132 µM | –
Cc1nc(N)c2c(n1)C(C)N(C(=O)c1ccccc1)C2 (configuration not stated) | > 135 | > 135 µM | –
Cc1ccc(-c2nnc(-c3nn(-c4ccccc4)c4nc5ccccc5nc34)o2)cc1 | – | – | inactive
N#CC(c1ccccc1)N(CCc1ccccc1)C(=O)Oc1ccccc1 (configuration not stated) | > 200 | > 200 µM | –
CCSc1c2cc(OC)ccc2nc2ccc(OC)cc12 | > 200 | 6.92 µM | –
COC(=O)C1=C(CO)C2C=CC1C2 (configuration not stated) | – | – | inactive
Cc1nnc2scnn12 | – | – | inactive
CN(C)Cc1cc(C(=O)/C=C/c2ccc(Cl)cc2Cl)cc(CN(C)C)c1O | > 200 | 3.8 µM | –
COC(OC)C(=O)[C@H]1[C@H](C(=O)OCC2OC(n3cc(C)c(=O)[nH]c3=O)CC2N=[N+]=[N-])C[C@H]2[C@@H]3CCC4=CC(=O)C=C[C@]4(C)[C@H]3[C@@H](O)C[C@@]21C (some centres not stated) | 0.0331 | 13.2 µM | –
